Reference: ChEMBL document CHEMBL1697723, “A predictive ligand-based Bayesian model for human drug-induced liver injury” (Drug Metab Dispos, 2010)
Starred links: 1 amine or outer side, 2 acyl side, 3 side chain; linkers in the order of their positions; H or OH if unused. Positions of bridges follow the written chain, without caps; N, C: chain ends. Non-standard residues stand in square brackets, D forms with d. Residues, ends and D or L forms follow the SMILES beside them. Chains are numbered I, II in the order given. Actinocin(9to1) = Cc1c2oc3c(C)ccc(C(=O)[*:1])c3nc-2c(C(=O)[*:2])c(N)c1=O; NMeV = CN[C@H](C(=O)O)C(C)C; Sar = CNCC(=O)O

These molecules were tested on Hepatotoxicity (assay: Human drug-induced liver injury (DILI) modelling dataset from Ekins et al). Conditions: not given.
In the case of CN(C)[C@@H]1C(O)=C(C(N)=O)C(=O)[C@@]2(O)C(O)=C3C(=O)c4c(O)ccc(Cl)c4[C@@](C)(O)[C@H]3C[C@@H]12.Cl [CHLORTETRACYCLINE HYDROCHLORIDE], the Hepatotoxicity is reported as “DILI positive (training set)”. In the case of Cc1cc(C2CCCCC2)n(O)c(=O)c1 [CICLOPIROX], the Hepatotoxicity is reported as “DILI negative (training set)”. With CC1(COc2ccc(CC3SC(=O)NC3=O)cc2)CCCCC1 (stereo not drawn) [CIGLITAZONE] the Hepatotoxicity was “DILI positive (test set)”. With O=C(O)c1cc(-c2ccccc2)nc2ccccc12 [CINCHOPHEN] the Hepatotoxicity was “DILI positive (test set)”. CC(C)(Oc1ccc(C2CC2(Cl)Cl)cc1)C(=O)O (stereo not drawn) [CIPROFIBRATE] was tested, and the Hepatotoxicity was “DILI positive (training set)”. For COc1cc(N)c(Cl)cc1C(=O)NC1CCN(CCCOc2ccc(F)cc2)CC1OC (stereo not drawn) [CISAPRIDE], the Hepatotoxicity was “DILI negative (training set)”. CN(C)CCCC1(c2ccc(F)cc2)OCc2cc(C#N)ccc21 (stereo not drawn) [CITALOPRAM] was tested, and the Hepatotoxicity was “DILI negative (training set)”. In the case of C[N+](C)(C)CCOP(=O)(O)OP(=O)([O-])OC[C@H]1O[C@@H](n2ccc(N)nc2=O)[C@H](O)[C@@H]1O [CITICOLINE], the Hepatotoxicity is reported as “DILI negative (test set)”. With Nc1nc(Cl)nc2c1ncn2[C@H]1C[C@H](O)[C@@H](CO)O1 [CLADRIBINE] the Hepatotoxicity was “DILI negative (training set)”. In the case of CC[C@H]1OC(=O)[C@H](C)[C@@H](O[C@H]2C[C@@](C)(OC)[C@@H](O)[C@H](C)O2)[C@H](C)[C@@H](O[C@@H]2O[C@H](C)C[C@H](N(C)C)[C@H]2O)[C@](C)(OC)C[C@@H](C)C(=O)[C@H](C)[C@@H](O)[C@]1(C)O [CLARITHROMYCIN], the Hepatotoxicity is reported as “DILI positive (test set)”. In the case of CN1CCC[C@@H]1CCO[C@](C)(c1ccccc1)c1ccc(Cl)cc1.O=C(O)/C=C/C(=O)O [CLEMASTINE FUMARATE], the Hepatotoxicity is reported as “DILI negative (test set)”. For NC1CCN(c2c(F)cc3c(=O)c(C(=O)O)cn(C4CC4)c3c2Cl)C1 (stereo not drawn) [CLINAFLOXACIN], the Hepatotoxicity was “DILI negative (training set)”. For CCC[C@@H]1C[C@@H](C(=O)N[C@@H]([C@H]2O[C@H](SC)[C@H](O)[C@@H](O)[C@H]2O)[C@H](C)Cl)N(C)C1.Cl [CLINDAMYCIN HYDROCHLORIDE], the Hepatotoxicity was “DILI positive (test set)”. In the case of CCOC(=O)C(C)(C)Oc1ccc(Cl)cc1 [CLOFIBRATE], the Hepatotoxicity is reported as “DILI positive (test set)”. For CCN(CC)CCOc1ccc(C(=C(Cl)c2ccccc2)c2ccccc2)cc1 [CLOMIPHENE], the Hepatotoxicity was “DILI positive (training set)”. In the case of CN(C)CCCN1c2ccccc2CCc2ccc(Cl)cc21 [CLOMIPRAMINE], the Hepatotoxicity is reported as “DILI positive (training set)”. For Clc1ccccc1C(c1ccccc1)(c1ccccc1)n1ccnc1 [CLOTRIMAZOLE], the Hepatotoxicity was “DILI negative (training set)”. In the case of Cc1onc(-c2ccccc2Cl)c1C(=O)N[C@@H]1C(=O)N2[C@@H]1SC(C)(C)[C@@H]2C(=O)[O-].O.[Na+] [CLOXACILLIN SODIUM], the Hepatotoxicity is reported as “DILI positive (test set)”. For CN1CCN(C2=Nc3cc(Cl)ccc3Nc3ccccc32)CC1 [CLOZAPINE], the Hepatotoxicity was “DILI positive (training set)”. In the case of COc1cc2c(c(OC)c1OC)-c1ccc(OC)c(=O)cc1[C@@H](NC(C)=O)CC2 [COLCHICINE], the Hepatotoxicity is reported as “DILI negative (training set)”. With O=C(O)c1cc(=O)c2c(OCC(O)COc3cccc4oc(C(=O)O)cc(=O)c34)cccc2o1 [CROMOLYN] the Hepatotoxicity was “DILI negative (training set)”. CN1CCN(C(c2ccccc2)c2ccccc2)CC1 [CYCLIZINE] was tested, and the Hepatotoxicity was “DILI positive (test set)”. For CN1CCC(=C2c3ccccc3C=Cc3ccccc32)CC1.Cl [CYPROHEPTADINE HYDROCHLORIDE], the Hepatotoxicity was “DILI positive (training set)”. CC(=O)O[C@]1(C(C)=O)CC[C@H]2[C@@H]3C=C(Cl)C4=CC(=O)[C@@H]5C[C@@H]5[C@]4(C)[C@H]3CC[C@@]21C [CYPROTERONE ACETATE] was tested, and the Hepatotoxicity was “DILI positive (training set)”. In the case of C=C(C)[C@H]1CC=C(C)CC1 [D-LIMONENE], the Hepatotoxicity is reported as “DILI positive (test set)”. For CN(C)/N=N/c1[nH]cnc1C(N)=O [DACARBAZINE], the Hepatotoxicity was “DILI positive (test set)”. In the case of Cc1c2oc3c(C)ccc(C(=O)N[C@@H]4C(=O)N[C@H](C(C)C)C(=O)N5CCC[C@H]5C(=O)N(C)CC(=O)N(C)[C@@H](C(C)C)C(=O)O[C@@H]4C)c3nc-2c(C(=O)N[C@@H]2C(=O)N[C@H](C(C)C)C(=O)N3CCC[C@H]3C(=O)N(C)CC(=O)N(C)[C@@H](C(C)C)C(=O)O[C@@H]2C)c(N)c1=O [DACTINOMYCIN] (I: T[dV]P[Sar][NMeV] / II: T[dV]P[Sar][NMeV]; ester I:1-I:C, II:1-II:C; linker I:N-II:N via Actinocin(9to1)), the Hepatotoxicity is reported as “DILI positive (test set)”. With C#C[C@]1(O)CC[C@H]2[C@@H]3CCC4=Cc5oncc5C[C@]4(C)[C@H]3CC[C@@]21C [DANAZOL] the Hepatotoxicity was “DILI positive (training set)”. O=C1CN(/N=C/c2ccc(-c3ccc([N+](=O)[O-])cc3)o2)C(=O)[N-]1.[Na+] [DANTROLENE SODIUM] was tested, and the Hepatotoxicity was “DILI positive (training set)”. With CC(=O)N(O)CCCCCNC(=O)CCC(=O)N(O)CCCCCNC(=O)CCC(=O)N(O)CCCCCN.CS(=O)(=O)O [DEFEROXAMINE MESYLATE] the Hepatotoxicity was “DILI positive (training set)”. In the case of CN(C)[C@@H]1C(O)=C(C(N)=O)C(=O)[C@@]2(O)C(O)=C3C(=O)c4c(O)ccc(Cl)c4[C@@H](O)[C@H]3C[C@@H]12.Cl [DEMECLOCYCLINE HYDROCHLORIDE], the Hepatotoxicity is reported as “DILI positive (training set)”. For C[C@@H]1C[C@H]2[C@@H]3CCC4=CC(=O)C=C[C@]4(C)[C@@]3(F)[C@@H](O)C[C@]2(C)[C@@]1(O)C(=O)CO [DEXAMETHASONE], the Hepatotoxicity was “DILI negative (training set)”. For C[C@H](N)Cc1ccccc1.C[C@H](N)Cc1ccccc1.O=S(=O)(O)O [DEXTROAMPHETAMINE SULFATE], the Hepatotoxicity was “DILI positive (test set)”. For Br.COc1ccc2c(c1)[C@]13CCCC[C@@H]1[C@H](C2)N(C)CC3.O [DEXTROMETHORPHAN HYDROBROMIDE], the Hepatotoxicity was “DILI negative (training set)”. In the case of Cc1onc(-c2c(Cl)cccc2Cl)c1C(=O)N[C@@H]1C(=O)N2[C@@H]1SC(C)(C)[C@@H]2C(=O)[O-].O.[Na+] [DICLOXACILLIN SODIUM], the Hepatotoxicity is reported as “DILI positive (test set)”. In the case of O=c1[nH]cnc2c1ncn2[C@H]1CC[C@@H](CO)O1 [DIDANOSINE], the Hepatotoxicity is reported as “DILI positive (training set)”. CCN(CC)C(=O)N1CCN(C)CC1 [DIETHYLCARBAMAZINE] was tested, and the Hepatotoxicity was “DILI positive (training set)”.

Same assay, conditions: Liver
For CN/C(=N/CCSCc1nc[nH]c1C)NC#N [CIMETIDINE], the Hepatotoxicity was “DILI negative (training set)”. For Cl.Clc1cccc(Cl)c1NC1=NCCN1 [CLONIDINE HYDROCHLORIDE], the Hepatotoxicity was “DILI positive (training set)”. For O=P1(N(CCCl)CCCl)NCCCO1 (stereo not drawn) [CYCLOPHOSPHAMIDE ANHYDROUS], the Hepatotoxicity was “DILI positive (training set)”. In the case of Nc1ccc(S(=O)(=O)c2ccc(N)cc2)cc1 [DAPSONE], the Hepatotoxicity is reported as “DILI positive (training set)”. CNCCCN1c2ccccc2CCc2ccccc21 [DESIPRAMINE] was tested, and the Hepatotoxicity was “DILI negative (training set)”. O=C(O)c1cc(-c2ccc(F)cc2F)ccc1O [DIFLUNISAL] was tested, and the Hepatotoxicity was “DILI positive (training set)”.
